Test results: paper PMC5982112 (Peptides, 2018)
Ends that are not written are not given here.

Legend:
[1] = tested on: Escherichia coli (ATCC 25922); test: Broth dilution sterilization assay, E. coli; assay type: cell-based; conditions: lowest concentration that completely sterilizes bacteria in media, mean of at least three independent measurements
[2] = tested on: Pseudomonas aeruginosa (PA01, ATTC 47085); test: Broth dilution sterilization assay, P. aeruginosa; assay type: cell-based; conditions: lowest concentration that completely sterilizes bacteria in media, mean of at least three independent measurements
[3] = tested on: Staphylococcus aureus (ATCC 25923); test: Broth dilution sterilization assay, S. aureus; assay type: cell-based; conditions: lowest concentration that completely sterilizes bacteria in media, mean of at least three independent measurements
[4] = tested on: Bacillus cereus; test: Broth dilution sterilization assay, B. cereus; assay type: cell-based; conditions: lowest concentration that completely sterilizes bacteria in media, mean of at least three independent measurements
[5] = tested on: bloodstream (infective) form of Trypanosoma brucei; conditions: cited from earlier work
[6] = tested on: procyclic (noninfective) form of T. brucei; conditions: cited from earlier work
[7] = tested on: Escherichia coli (ATCC 25922); assay type: cell-based
[8] = tested on: Staphylococcus aureus (ATCC 25923); assay type: cell-based
[9] = tested on: E. coli; conditions: ref 17 (El Karim et al.); cited from earlier work
[10] = tested on: S. aureus; conditions: ref 17 (El Karim et al.); cited from earlier work

| Substance | EC Broth, minimum inhibitory concentration (MIC) [1] | PA Broth, minimum inhibitory concentration (MIC) [2] | SA Broth, minimum inhibitory concentration (MIC) [3] | BC Broth, minimum inhibitory concentration (MIC) [4] | Killing of bloodstream (infective) form of Trypanosoma brucei [5] | Effect on procyclic (noninfective) form of T. brucei [6] | EC Radial Diffusion, minimum inhibitory concentration (MIC) [7] | SA Radial Diffusion, minimum inhibitory concentration (MIC) [8] | Activity against E. coli [9] | Activity against S. aureus [10] |
| --- | --- | --- | --- | --- | --- | --- | --- | --- | --- | --- |
| PACAP27 | >30 µM | 23.6 µM | >30 µM | >30 µM |  |  |  |  |  |  |
| PACAP(6–38) | >30 µM | 30.0 µM | >30 µM | >30 µM | effective |  |  |  |  |  |
| Pituitary adenylate cyclase-activating polypeptide [PACAP38] | 28.3 µM | 1.2 µM | >30 µM | 23.3 µM | killed | resistant |  |  |  |  |
| RRGWALRLVLAY-NH2 [ARVA] | 2.3 µM | 4.3 µM | 5.1 µM | 6.4 µM |  |  | 1.57 µM | 3.46 µM |  |  |
| [Ala^22]PACAP38 | 2.15 µM | 0.52 µM | >30 µM | 4.84 µM |  |  |  |  |  |  |
| [D-Ser^2]PACAP38 | >30 µM | 6.1 µM | >30 µM | 13.6 µM |  |  |  |  |  |  |
| [Pip^3,Aib^16,28,Ala^17,21,Lys^34,D-Lys^38]PACAP38 | 1.43 µM | 0.64 µM | >30 µM | 7.26 µM |  |  |  |  |  |  |
| [Pip^3,Aib^16,28,Ala^17,Lys^34,D-Lys^38]PACAP38 | 2.15 µM | 0.52 µM | >30 µM | 3.95 µM |  |  |  |  |  |  |
| [Pip^3]PACAP38 | >30 µM | 8.9 µM | >30 µM | 8.9 µM |  |  |  |  |  |  |
| indolicidin | 6.24 µM | >50 µM | 7.9 µM | 10.7 µM |  |  |  |  |  |  |
| vasoactive intestinal peptide [VIP] | >30 µM | 30.0 µM | >30 µM | >30 µM |  |  |  |  | had activity against E. coli | not against S. aureus |
